Measurements reported in PubChem BioAssay (NCI).
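Dose response: 5 concentrations. Exposure: 48 h. Format: 96-well plates. Endpoint: linear interpolation; highest concentration if not reached. GI50 marks 50% less growth. TGI: total growth inhibition.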

Assays:
Assay in all cases: growth of human tumour cells (NCI), 48 h
[1] = tested on: 786-0 renal
[2] = tested on: HCC-2998 colon
[3] = tested on: HOP-62 NSCLC
[4] = tested on: KM12 colon
[5] = tested on: M14 melanoma
[6] = tested on: OVCAR-5 ovarian
[7] = tested on: SK-MEL-2 melanoma
[8] = tested on: SK-MEL-28 melanoma
[9] = tested on: SNB-75 CNS
[10] = tested on: CCRF-CEM leukemia

| SMILES | GI50 [1] [µM] | TGI [1] [µM] | GI50 [2] [µM] | TGI [2] [µM] | GI50 [3] [µM] | TGI [3] [µM] | GI50 [4] [nM] | TGI [4] [µM] | GI50 [5] [nM] | TGI [5] [µM] | GI50 [6] [µM] | TGI [6] [µM] | GI50 [7] [nM] | TGI [7] [µM] | GI50 [8] [µM] | TGI [8] [µM] | GI50 [9] [µM] | TGI [9] [µM] | GI50 [10] [nM] | TGI [10] [µM] |
| --- | --- | --- | --- | --- | --- | --- | --- | --- | --- | --- | --- | --- | --- | --- | --- | --- | --- | --- | --- | --- |
| Nc1[nH]nc2nc(-c3cccs3)cc(C(F)(F)F)c12 | > 25 | > 25 | > 25 | > 25 | > 25 | > 25 | 12000 | > 25 | > 25000 | > 25 | > 25 | > 25 | > 22300 | > 25 | > 25 | > 25 | > 25 | > 25 |  |  |
| O=C(Nc1ccc(Cl)cc1)Nc1ccc(Nc2nncc3ccccc23)cc1 | 3.09 | 25.2 | 3.26 | 19.8 | 3 | 14.9 | 1470 | 11.4 | 1520 | 11.5 | 4.15 | 34.3 | 2700 | 7.7 | 3.04 | 12.8 | 1.88 | 8.67 | 2570 | 17 |
| COc1cc(C(=O)NC2CCN(C)CC2)c(F)cc1Nc1ncc2c(n1)N(C1CCCC1)CC(F)(F)C(=O)N2C | 0.0435 | 11.7 | 0.0293 | 12.3 | < 0.0141 | 13.2 | < 10 | 14 | 23.5 | 5.89 | < 0.0191 | 14.3 | < 10 | 3.4 | < 0.0209 | 16.2 |  |  | < 10 | 3.58 |
| O=C1c2c(O)cccc2C(C2OC(CO)C(O)C(O)C2O)c2cc(CO)cc(O)c21 (centres undefined) |  | > 100 |  | > 100 |  | > 100 |  | > 100 |  | > 100 |  | > 100 |  | > 100 |  | > 100 |  | > 100 |  | > 100 |
| Cc1ccc(Nc2nc(C)c(C(/C=C/c3ccc(/C=C/C(=N/NC(=O)C[n+]4ccccc4)c4sc(Nc5ccc(C)cc5[N+](=O)[O-])nc4C)cc3)=N\NC(=O)C[n+]3ccccc3)s2)c([N+](=O)[O-])c1 |  | > 100 |  | > 100 |  | > 100 |  | > 100 |  | > 100 |  | > 100 |  | > 100 |  | > 100 |  | > 100 |  | > 100 |
| CCSCCCN(CCCSCC)CCCSCC |  | > 100 |  | > 100 |  | > 100 |  | > 100 |  | > 100 |  | > 100 |  |  |  | > 100 |  | > 100 |  | > 100 |
| CCCOC(=O)N1CCN(/[N+]([O-])=N/Oc2ccc([N+](=O)[O-])cc2[N+](=O)[O-])CC1 | 1 | 2.95 |  |  | 2.58 | 6.4 | 2010 | 5.66 |  |  | 3.43 | 12.7 | 2710 | 7.78 | 6.04 | 39.4 | 18.2 | 36.1 |  |  |
| C/C=C(/COC(C)=O)C(=O)OC1C=C(C=O)C(C)(C)C=C1C (centres undefined) |  | > 100 |  | > 100 |  |  |  | > 100 |  | > 100 |  | > 100 |  | > 100 |  | > 100 |  | > 100 |  | > 100 |
| C[Si](C)(C)c1ccc(-c2sc(-c3ccc([Si](C)(C)C)s3)c3c2C[Si]2(C3)Cc3c(-c4ccc([Si](C)(C)C)s4)sc(-c4ccc([Si](C)(C)C)s4)c3C2)s1 |  | > 100 |  | > 100 |  | > 100 |  | > 100 |  | > 100 |  | > 100 |  |  |  | > 100 |  | > 100 |  | > 100 |
| Cc1[nH]c2ccccc2c1C1Cc2ccccc2N1C(=O)/C=C/C(=O)O (centres undefined) |  | > 100 |  | > 100 |  | > 100 |  | > 100 |  | > 100 |  | > 100 |  | > 100 |  |  |  | > 100 |  | > 100 |
| COc1ccc(OC)c2c1C(=O)C1CC1(Br)C2=O (centres undefined) |  | > 100 |  | > 100 |  | > 100 |  | > 100 |  | > 100 |  | > 100 |  | > 100 |  | > 100 |  |  |  | > 100 |
| COC(=O)C1=CC2C(=O)OC1CC2C#N (centres undefined) |  | > 100 |  | > 100 |  | > 100 |  | > 100 |  | > 100 |  |  |  |  |  | > 100 |  | > 100 |  | > 100 |
| C[C@]12CC[C@H]3[C@@H](CC[C@]4(O)C[C@@H](O)CC[C@]34/C=N/O)[C@@]1(O)CC[C@@H]2C1=COC(=O)C1 |  | 0.362 |  | 0.687 |  |  |  | 2.51 |  | 0.657 |  | 0.998 |  | 0.587 |  | 2.06 |  | 4.44 |  | > 100 |
| COc1ccc(OC)c(NC(=O)CCC/C(CC(=O)c2ccc(O)c(OC)c2)=N\Nc2ccc([N+](=O)[O-])cc2)c1 |  | > 100 |  | > 100 |  | > 100 |  | > 100 |  | > 100 |  | > 100 |  | > 100 |  |  |  | 79 |  | > 100 |
| COc1cc([C@H]2OC[C@H]3[C@@H]2CO[C@@H]3c2cc(OC)c3c(c2)OCO3)cc(OC)c1OC |  | > 100 |  | > 100 |  | > 100 |  | > 100 |  | > 100 |  | > 100 |  | > 100 |  | > 100 |  | > 100 |  |  |
| C[CH2][Sn]([CH2]C)([O]C(=O)C(OC(C)=O)c1ccccc1)[O]C(=O)C(OC(C)=O)c1ccccc1 (centres undefined) | 19.9 | 34.8 |  |  | > 100 | > 100 | > 100000 | > 100 | 44500 | > 100 | 41.2 | > 100 | 54600 | > 100 | 18.3 | 40.9 | 31.9 | 99.5 | 1930 | 6.15 |
| CCc1cccc(C)c1NC(=O)C(=O)Cc1nc2ccccc2s1 |  | > 100 |  | > 100 |  |  |  | > 100 |  | > 100 |  |  |  | > 100 |  | > 100 |  | > 100 |  | > 100 |
| O=C(c1ccccc1)c1cccc(C(=O)c2ccccc2)c1 |  | > 100 |  | > 100 |  | > 100 |  | > 100 |  | > 100 |  |  |  | > 100 |  | > 100 |  | > 100 |  | > 100 |
| CCOC(=O)NC(=O)c1cn(CCCCCCOC(=O)NCCCCCCNC(=O)OCCCCCCn2cc(C(=O)NC(=O)OCC)c(=O)[nH]c2=O)c(=O)[nH]c1=O |  | > 100 |  | > 100 |  | > 100 |  | > 100 |  | > 100 |  |  |  | > 100 |  | > 100 |  | > 100 |  | > 100 |
| O=C1c2ccccc2-c2c1c1ccccc1c(=O)n2CCN1CCOCC1 | > 100 | > 100 | 42.5 | > 100 | > 100 | > 100 | 61800 | > 100 |  |  | > 100 | > 100 | > 100000 | > 100 | > 100 | > 100 | > 100 | > 100 | 49100 | > 100 |
| C[C@]12CCC3[C@@H](CC[C@@H]4c5nonc5CC[C@]34C)C1C/C(=N/O)C2=O (some centres undefined) |  | > 100 |  |  |  | > 100 |  | > 100 |  | > 100 |  | > 100 |  | 52 |  | > 100 |  | 2.98 |  | > 100 |
| COc1ccc2ccccc2c1C1OC(=O)c2ccccc21 (centres undefined) |  | > 100 |  | > 100 |  | > 100 |  | > 100 |  | > 100 |  | > 100 |  |  |  |  |  |  |  | > 100 |
| CC(C)c1cccc2sc(NC(=O)C(=O)C(C#N)c3cccc4ccccc34)nc12 (centres undefined) |  | > 100 |  | > 100 |  | > 100 |  | > 100 |  | > 100 |  |  |  | > 100 |  | > 100 |  | 95.4 |  | > 100 |
| COc1ccc(/C=N/N=C(\N)NO)c(OC)c1 |  | > 100 |  | 43.7 |  | 84.3 |  | > 100 |  |  |  | 36.1 |  | > 100 |  | > 100 |  |  |  | > 100 |
| O=S1(=O)OCCOS(=O)(=O)C1Cc1ccccc1 |  | > 100 |  | 45.4 |  | > 100 |  | > 100 |  |  |  | > 100 |  |  |  | > 100 |  | > 100 |  |  |
| CCOC(=O)C(=Cc1cccnc1C)C(=O)OCC |  | 20.8 |  |  |  | 40.7 |  | 12.9 |  | 24.2 |  | 31.8 |  | 16 |  | 36.5 |  | 11.8 |  | > 100 |
| O=C(Nc1ccc(Cl)c(Cl)c1)O/N=C\c1c(Cl)ccc([N+](=O)[O-])c1Cl | 3.96 | 13.5 |  |  | 3.07 | 11 | 1620 | 3.21 | 2440 | 8.18 | 1.86 | 3.84 | 2340 | 4.98 | 2.1 | 4.22 | 2.12 | 9.5 | 1880 | 5.1 |
